A short description of series [1]: metabolite profiling of pooled plasma after single IV dose of the mono-phosphate derivative, monkey. The note with it: single IV dose of mono-phosphate derivative (1.3 and 3.9 mg/kg), LC/UV/MS.
Procedure: (§1) In this study, 5, 15, 30 min, 1, 2, 4, 6, 8 and 24 hr plasma samples were collected following a single IV dose of the mono-phosphate derivative (1.3 and 3.9 mg/kg) to mice, rats and monkeys. Equal volume (100 μL) of samples from 5, 15, 30 min and 1, 2, 4 hr and 6, 8, 24 hr time points from each subject (n=3) were pooled from the two dosing groups. Aliquots (900 μL) of pooled plasma were mixed with 2700 μL of cold acetonitrile and centrifuged at 3200×g for 10 minutes. The resulting supernatants were transferred to clean tubes and evaporated to dryness in a TurboVap LV at ambient temperature under a slow stream of nitrogen. The dried extracts were reconstituted with 300 μL of 20:80 acetonitrile:water (v/v). The samples were then analyzed by LC/UV/MS for metabolite profiling and characterization. LC-ESI/MS in negative ionization mode was used to acquire mass spectral data.
Series [2] in a line: aqueous solubility at pH 7.4. Format: physicochemical. As to conditions: aqueous medium at pH 7.4 (buffer not specified), pH 7.4, aqueous buffer.
Series [3] relates to Albino BALBc mice, cecal ligation puncture (CLP). Nature of the series: cecal ligation puncture (mCLP) model, 7-day survival. Format: in vivo. How it is done:
The cecal ligation puncture (CLP) procedure was derived from a modification of standard methods previously described. Female, non-pregnant, specific pathogen-free, Albino BALBc mice (20-25 gm) were used in this experiment. The test compound (n=8 in each group) or corn oil control (n=12) were randomized to a treatment protocol consisting of 50 mg/kg of either the test compound or similar volume of corn oil at the time of CLP (time 0) and 24 and 48 hours following surgery. Animals were allowed to eat and drink sterile water on an ad libitum basis until 12 h before surgery when food was withheld until after the surgical procedure.
Anesthetized animals (methoxyflurane, Mallinckodt Veterninary Inc., Mundeline, Ill.) had the abdominal skin shaved and a midline, abdominal incision was made. The cecum was exteriorized and distended using intraluminal contents from the colon. The cecum was then ligated below the ileocecal valve and punctured twice using a 23-gauge sterile needle. The cecum was returned to the peritoneal cavity and the transversalis fascia was closed along with the skin incision. The skin incision was covered with topical bacitracin ointment. The animals were given a single […] dose of trovafloxacin (20 mg/kg IM) immediately post-operatively and a 1-mL subcutaneous dose of PBS was given as fluid resuscitation. […] All animals underwent necropsy examination for histological evidence of organ injury, pathology scoring of intestinal mucosa and quantitative bacteriology.
Differences in survival time between groups were analyzed by Kaplan-Meier survival plots and log-rank testing. Other parameters were measured using a Mann-Whitney U-Test for 2 groups or the Kruskal-Wallis one way analysis of variance for 3 or more groups. A p value of <0.05 was considered significant. All data is presented as mean and standard deviation.
The root compound (ERB-041) was dosed IV in the mCLP model, at 1 and 3 mg/kg at 24, 48 and 72 hours after induction of peritonitis. This therapeutic IV administration in mCLP confirmed attenuation of lung injury and cytokine/chemokine responses and attenuation of the subsequent clinical course, respectively.^5 achieving 7-day survival of 95 and 90% in the 3 and 1 mg/kg groups.
The 1 and 3 mg/kg doses were different from vehicle (0.05).

Series [4] is described as follows: metabolite profiling of pooled plasma after single IV dose of the mono-phosphate derivative, mouse. The note with it: single IV dose of mono-phosphate derivative (1.3 and 3.9 mg/kg), LC/UV/MS.
Procedure: as §1
Series [5] is described as follows: metabolite profiling of pooled plasma after single IV dose of the mono-phosphate derivative, rat. As to conditions: single IV dose of mono-phosphate derivative (1.3 and 3.9 mg/kg), LC/UV/MS.
Procedure: as §1
Series [6] in a line: IV pharmacokinetics. In kind it is in vivo.
Procedure: as §1
Setting [7] is: 1 mg/kg IV at 24, 48 and 72 hours after surgery / induction of peritonitis.
The mark [8] stands for this setting: 3 mg/kg IV at 24, 48 and 72 hours after surgery / induction of peritonitis.

≈ marks a conversion by molar mass, not a printed value.

For `C=Cc1cc(O)cc2nc(-c3ccc(O)c(F)c3)oc12` [ERB-041, 2-(3-fluoro-4-hydroxyphenyl)-7-vinyl-1,3-benzoxazol-5-ol, reference compound], the “Metabolites of phosphate prodrug characterized in plasma: Monkey” value in series [1] was “Yes”. The same compound gave a solubility in series [2] of 4 µg/mL (≈ 14.7 µM). The 7-day survival in series [3] (setting [7]) was 90%; in series [3] (setting [8]), 95%. The “lung injury and cytokine/chemokine responses” value in series [3] (1 and 3 mg/kg IV at 24, 48 and 72 hours after induction of peritonitis) is given as “attenuation”. The “Metabolites of phosphate prodrug characterized in plasma: Mouse” value in series [4] is listed as “Yes”. Further, in series [5], the “Metabolites of phosphate prodrug characterized in plasma: Rat” value is “Yes”.
On to `C=Cc1cc(O)cc2nc(-c3ccc(OP(=O)(O)O)c(F)c3)oc12` [Mono-Phosphate derivative of ERB 041, 2-fluoro-4-(5-hydroxy-7-vinylbenzo[d]oxazol-2-yl)phenyl dihydrogen phosphate], for which the “Metabolites of phosphate prodrug characterized in plasma: Monkey” value in series [1] is listed as “Yes”. Also, in series [2], the solubility is greater than 100 µg/mL. Further, the 7-day survival turned out to be 40% in series [3] (0.3 mg/kg IV at 24, 48 and 72 hours after surgery); 60% in series [3] (setting [7]); 60% in series [3] (setting [8]). The “minimally effective dose in mCLP” value in series [3] (IV) is on record as 1 mg/kg. For the same compound, the IV pharmacokinetics result in series [6] is “reasonable”. Moreover, the “Metabolites of phosphate prodrug characterized in plasma: Mouse” value in series [4] was “Yes”. Also, the “Metabolites of phosphate prodrug characterized in plasma: Rat” value in series [5] is given as “Yes”.

As usually defined, the solubility is the concentration that dissolves in the medium under given conditions.

Source of the values: patent publication US20110212923A1, “Phosphate Derivatives of Substituted Benzoxazoles” (PFIZER INC., priority 2008, published 2011).
